Patent publication US9499584B2, “GPCR with improved cell surface expression” (CANVAX BIOTECH S.L, priority 2012, dated 2016)

Legend:
RBL-2H3 = assay: Influence of VGS mutations on surface expression of human HTR1B in RBL-2H3 cells, flow cytometry after magnetic bead separation (Example 4); assay type: cell-based; conditions: for Percentage of positive cells after selection (range) / Median fluorescence intensity of positive cells, x-median (range): human HTR1B, MoMLV5′LTR promoter, RBL-2H3, triplicate; for Percentage of positive cells after selection (range): magnetic bead separated
Excerpt: Vectors were developed for stable expression of human HTR1B without the methionine at position 1 in mammalian cells under the control of Moloney Leukaemia virus 5′-LTR promoter (MoMLV5′LTR, SEQ ID NO: 6). All vectors had the neomycin resistance gene for selection of stable eukaryotic cells and mouse immunoglobulin kappa signal peptide followed by a c-myc tag (EQKLISEEDLN peptide). Vectors included no VGS, native VGS or two VGS mutants (VGS mutant 1 and VGS mutant 2). This experiment was designed to test if serine and threonine at VGS which represent potential […] glycosylation sites are the molecular determinants of improved surface expression. In VGS mutant 1 all 5 serine and threonine were mutated to alanine while in VGS mutant 2 all serine were mutated and 2 threonines were still present.
Each vector was individually electroporated by triplicate using a microporator (Digital Bio Technology, South Korea) into RBL-2H3 and after 48 hours neomycin at 500 ug/mL was added to culture for selection. After selection for about 2 weeks cells were analysed by flow cytometry (Guava Technologies, USA) with anti-cmyc tag antibody (anti-cmyc-FITC, clone 9E10, Sigma-Aldrich, USA) for surface expression. Selected cells were separated by using magnetic beads from Miltenyi and anti-cmyc tag. Results were expressed as percentage of positive cells after subtraction of values from non transfected RBL-2H3 cells incubated with the same anti-cmyc tag antibody. For positive cells median fluorescence intensity (x-median) was taken as a marker of surface receptor density on the surface of positive cells.

WEHI-3B = assay: Surface expression of HT1BR in stably transfected WEHI-3B cells, flow cytometry with anti-cmyc tag antibody (Example 2); assay type: cell-based, mouse
Excerpt: (§1) Vectors were developed for stable expression of GPCRs in hematopoietic cells without professional regulated exocytosis under the control of Moloney Leukaemia virus 5′-LTR (MoMLV5′LTR, SEQ ID NO: 6), a good promoter for expression of GPCRs tested previously for more than 20 different GPCRs. The vector had neomycin resistance gene for selection of stable eukaryotic cells, mouse immunoglobulin kappa signal peptide followed by a c-myc tag (EQKLISEEDLN peptide) and the entire HT1BR GPCR without the methionine at position 1. This GPCR is a prototype of a receptor that it is difficult to be expressed into RBL-2H3. Two vectors were developed: one with a heterologous viral-GPCR derived sequence (VGS) and one without VGS. Each vector was individually electroporated using a microporator (Digital Bio Technology, South Korea) into WEHI-3B, a mouse myelomonocytic leukaemia cell line (DSMZ, ACC26) and into BW5147.G.1.4.ovar.1, a mouse lymphoma T cell line (HPA cultures, Cat. No. 88100507) and after 48 hours neomycin was added to culture for selection. After selection for about 2 weeks cells were analysed by flow cytometry (Guava Technologies, USA) with anti-cmyc tag antibody (anti-cmyc-FITC, clone 9E10, Sigma-Aldrich, USA) for surface expression.

BW5147.G.1.4.ovar.1 = assay: Surface expression of HT1BR in stably transfected BW5147 cells, flow cytometry with anti-cmyc tag antibody (Example 2); assay type: cell-based, mouse; conditions: MoMLV5′LTR promoter
Excerpt: as §1

HEK293 cells = assay: Surface expression of human HTR1B in stably transfected HEK293 cells, flow cytometry with anti-cmyc tag antibody (Example 3); assay type: cell-based; conditions: HEK293, MoMLV5′LTR promoter
Excerpt: Vectors were developed for stable expression of GPCRs in mammalian cells under the control of the following promoters: Moloney Leukaemia virus 5′-LTR (MoMLV5′LTR, SEQ ID NO: 6), human phosphoglycerate kinase promoter (SEQ ID NO: 4) and human elongation factor 1 alpha promoter (hEF1alpha, SEQ ID NO: 3). All vectors had the neomycin resistance gene for selection of stable eukaryotic cells, mouse immunoglobulin kappa signal peptide followed by a c-myc tag (EQKLISEEDLN peptide), a sequence derived from a heterologous viral-GPCR (VGS, SEQ ID NO: 2) and the entire human HTR1B without the methionine at position 1. Such heterologous viral-GPCR derived sequence was included to test if surface expression is improved by certain heterologous viral-GPCR derived sequences in non-hematopoietic cell lines. […] After selection for about 2 weeks cells were analysed by flow cytometry (Guava Technologies, USA) with anti-cmyc tag antibody (anti-cmyc-FITC, clone 9E10, Sigma-Aldrich, USA) for surface expression. Results were expressed as percentage of positive cells after subtraction of values from non transfected HEK293 cells incubated with the same anti-cmyc tag antibody. […] For positive cells mean fluorescence intensity (MFI) was taken as a marker of surface receptor density on the surface of positive cells.

LAAMAPGATVGT [VGS mutant 2, all serine mutated, 2 threonines still present]
Reduction of median fluorescence intensity versus native VGS (RBL-2H3; RBL-2H3, MoMLV5′LTR promoter): 1.43 fold | Percentage of positive cells after selection (range) (RBL-2H3): 49.2 (48.2-50.2) %

LSTMAPGSTVGT [VGS native]
Increase of median fluorescence intensity of positive cells versus no VGS (RBL-2H3; RBL-2H3, MoMLV5′LTR promoter): 2.6 fold | Median fluorescence intensity of positive cells, x-median (range) (RBL-2H3): 89.3 (87.7-90.9) | Percentage of positive cells after selection (range) (RBL-2H3): 50.2 (49.2-51.1) % | Percentage of positive cells after selection (range) (RBL-2H3; listed as native VGS): 50% | Median fluorescence intensity of positive cells, x-median (range) (RBL-2H3; listed as native VGS): 89.3

VGS: Heterologous viral-GPCR derived sequence (VGS, SEQ ID NO: 2) added at the amino terminus of the GPCR (CTGAGCACAATGGCCCCAGGCTCCACCGTGGGAACA; expressed or natural sequence)
Percentage of positive cells after selection (WEHI-3B; HT1BR, WEHI 3B cells, about 2 weeks neomycin selection): about 50% | Ratio of percentage of positive cells with VGS versus without (WEHI-3B; WEHI-3B cells, MoMLV5′LTR promoter): 1.6 times | Ratio of percentage of cells with surface expression with VGS versus without (BW5147.G.1.4.ovar.1): about 15 times | Improvement of percentage of positive cells by inclusion of VGS (HEK293 cells): 2.7 fold

LAAMAPGAAVGA [VGS mutant 1, all 5 serine and threonine mutated to alanine]
Median fluorescence intensity of positive cells, x-median (range) (RBL-2H3): 45.6 (44.9-46.2) | Percentage of positive cells after selection (range) (RBL-2H3): 49.1 (47.5-50.7) %
